Test results as given in patent US7074447B2 (Laboratories Miret, S.A., priority 2001, dated 2006).

Assays:
Test in all cases: minimum inhibition concentration and Kull synergy index of LAE / potassium sorbate
Type in all cases: cell-based
Conditions in all cases: for SI, synergy index: <1 synergism, 1 addition, >1 antagonism
[1] = tested on: Bacillus subtilis (CECT 356)
Description: The invention is now explained by a number of examples. In these examples LAE and sorbate alone and in a number of different combinations have been investigated against a number of bacterial preparations. For the analysis usually an internal method was used. Conditions and medium were Mueller Hinton broth (pH 7.4) or (pH 5.0) for bacteria, Sabouraud broth (pH 5.8) for yeast and Sabouraud medium for moulds. […] The interaction of the two components of the antimicrobial mixture is calculated according to the method described by Kull et al. (Kull […]. and Mayer R. L., Applied Microbiology, 1961; 6:538-541). According to this method the so-called synergy index is calculated according to the following formula: Synergy index […]. […] All indicated symbols indicate a particular concentration leading to a particular end point, in this case the inhibition of growth of Bacillus subtilis, so that the selected end point is in fact the minimal inhibitory concentration (mic).

[2] = tested on: Citrobacter intermedium (CECT 401)
Description: (§1) The invention is now explained by a number of examples. In these examples LAE and sorbate alone and in a number of different combinations have been investigated against a number of bacterial preparations. For the analysis usually an internal method was used. Conditions and medium were Mueller Hinton broth (pH 7.4) or (pH 5.0) for bacteria, Sabouraud broth (pH 5.8) for yeast and Sabouraud medium for moulds. The interaction of the two components of the antimicrobial mixture is calculated according to the method described by Kull et al. (Kull […]. and Mayer R. L., Applied Microbiology, 1961; 6:538-541). According to this method the so-called synergy index is calculated according to the following formula: Synergy index […]. […] The same method was used as described for example 1. […] Again the effects of the components alone and in combination have been calculated using the same method as described at Example 1.

[3] = tested on: Cladosporium cladosporioides (ATCC 16022)
Description: as §1

[4] = tested on: Enterobacter aerogenes (ATCC 13048)
Description: as §1

[5] = tested on: Escherichia coli (ATCC 8739)
Description: as §1

[6] = tested on: Penicillium camemberti (CECT 2267)
Description: as §1

[7] = tested on: Candida albicans (ATCC 10231)
Description: as §1, with “Conditions and medium were Mueller Hinton broth (pH 7.4) or (pH 5.0) for bacteria, Sabouraud broth (pH 5.8) for yeast and Sabouraud medium for moulds.” left out

[8] = pH 7.4, propylene glycol solutions

CCCCCCCCCCCC(=O)N[C@@H](CCCNC(=N)N)C(=O)OCC.Cl [LAE, L-arginine, N^α-lauroyl-ethylester monohydrochloride]
QLAE, minimum inhibition concentration of LAE as single antimicrobial ([1]; pH 5.0): 29.3
Qlae, minimum inhibition concentration of LAE in the mixture ([1]; pH 5.0): 29.3
Qlae/QLAE ([1]; pH 5.0): 1.00
Qs, minimum inhibition concentration of potassium sorbate in the mixture ([1]; pH 5.0): 0
Qs/QS ([1]; pH 5.0): 0.00
SI, synergy index ([1]; pH 5.0): 1.00
QLAE, minimum inhibition concentration of LAE as single antimicrobial [1, 8]: 12.8
Qlae, minimum inhibition concentration of LAE in the mixture [1, 8]: 12.8
Qlae/QLAE [1, 8]: 1.00
Qs, minimum inhibition concentration of potassium sorbate in the mixture [1, 8]: 0
Qs/QS [1, 8]: 0.00
SI, synergy index [1, 8]: 1.00
QLAE, minimum inhibition concentration of LAE as single antimicrobial ([2]; pH 5.0): 12.8
Qlae, minimum inhibition concentration of LAE in the mixture ([2]; pH 5.0): 12.8
Qlae/QLAE ([2]; pH 5.0): 1.00
Qs, minimum inhibition concentration of potassium sorbate in the mixture ([2]; pH 5.0): 0
Qs/QS ([2]; pH 5.0): 0.00
SI, synergy index ([2]; pH 5.0): 1.00
QLAE, minimum inhibition concentration of LAE as single antimicrobial ([2]; pH 7.4, aqueous solutions): 25.6
Qlae, minimum inhibition concentration of LAE in the mixture ([2]; pH 7.4, aqueous solutions): 25.6
Qlae/QLAE ([2]; pH 7.4, aqueous solutions): 1.00
Qs, minimum inhibition concentration of potassium sorbate in the mixture ([2]; pH 7.4, aqueous solutions): 0
Qs/QS ([2]; pH 7.4, aqueous solutions): 0.00
SI, synergy index ([2]; pH 7.4, aqueous solutions): 1.00
QLAE, minimum inhibition concentration of LAE as single antimicrobial ([3]; pH 5.0): 58.5
Qlae, minimum inhibition concentration of LAE in the mixture ([3]; pH 5.0): 58.5
Qlae/QLAE ([3]; pH 5.0): 1.00
Qs, minimum inhibition concentration of potassium sorbate in the mixture ([3]; pH 5.0): 0
Qs/QS ([3]; pH 5.0): 0.00
SI, synergy index ([3]; pH 5.0): 1.00
QLAE, minimum inhibition concentration of LAE as single antimicrobial ([3]; pH 7.4, aqueous solutions): 25.6
Qlae, minimum inhibition concentration of LAE in the mixture ([3]; pH 7.4, aqueous solutions): 25.6
Qlae/QLAE ([3]; pH 7.4, aqueous solutions): 1.00
Qs, minimum inhibition concentration of potassium sorbate in the mixture ([3]; pH 7.4, aqueous solutions): 0
Qs/QS ([3]; pH 7.4, aqueous solutions): 0.00
SI, synergy index ([3]; pH 7.4, aqueous solutions): 1.00
QLAE, minimum inhibition concentration of LAE as single antimicrobial ([4]; pH 5.0): 21.5
Qlae, minimum inhibition concentration of LAE in the mixture ([4]; pH 5.0): 21.5
Qlae/QLAE ([4]; pH 5.0): 1.00
Qs, minimum inhibition concentration of potassium sorbate in the mixture ([4]; pH 5.0): 0
Qs/QS ([4]; pH 5.0): 0.00
SI, synergy index ([4]; pH 5.0): 1.00
Qlae, minimum inhibition concentration of LAE in the mixture ([4]; pH 7.4, aqueous solutions): 68.2
Qs, minimum inhibition concentration of potassium sorbate in the mixture ([4]; pH 7.4, aqueous solutions): 0
Qs/QS ([4]; pH 7.4, aqueous solutions): 0.00
SI, synergy index ([4]; pH 7.4, aqueous solutions): 1.00
QLAE, minimum inhibition concentration of LAE as single antimicrobial ([5]; pH 5.0): 21.5
Qlae, minimum inhibition concentration of LAE in the mixture ([5]; pH 5.0): 21.5
Qlae/QLAE ([5]; pH 5.0): 1.00
Qs, minimum inhibition concentration of potassium sorbate in the mixture ([5]; pH 5.0): 0
Qs/QS ([5]; pH 5.0): 0.00
SI, synergy index ([5]; pH 5.0): 1.00
QLAE, minimum inhibition concentration of LAE as single antimicrobial ([5]; pH 7.4, aqueous solutions): 25.6
Qlae, minimum inhibition concentration of LAE in the mixture ([5]; pH 7.4, aqueous solutions): 25.6
Qlae/QLAE ([5]; pH 7.4, aqueous solutions): 1.00
Qs, minimum inhibition concentration of potassium sorbate in the mixture ([5]; pH 7.4, aqueous solutions): 0
Qs/QS ([5]; pH 7.4, aqueous solutions): 0.00
SI, synergy index ([5]; pH 7.4, aqueous solutions): 1.00
QLAE, minimum inhibition concentration of LAE as single antimicrobial ([6]; pH 5.0): 58.5
Qlae, minimum inhibition concentration of LAE in the mixture ([6]; pH 5.0): 58.5
Qlae/QLAE ([6]; pH 5.0): 1.00
Qs, minimum inhibition concentration of potassium sorbate in the mixture ([6]; pH 5.0): 0
Qs/QS ([6]; pH 5.0): 0.00
SI, synergy index ([6]; pH 5.0): 1.00
QLAE, minimum inhibition concentration of LAE as single antimicrobial ([6]; pH 7.4, aqueous solutions): 68.2
Qlae, minimum inhibition concentration of LAE in the mixture ([6]; pH 7.4, aqueous solutions): 68.2
Qlae/QLAE ([6]; pH 7.4, aqueous solutions): 1.00
Qs, minimum inhibition concentration of potassium sorbate in the mixture ([6]; pH 7.4, aqueous solutions): 0
Qs/QS ([6]; pH 7.4, aqueous solutions): 0.00
SI, synergy index ([6]; pH 7.4, aqueous solutions): 1.00
QLAE, minimum inhibition concentration of LAE as single antimicrobial ([7]; pH 5.0): 29.3
Qlae, minimum inhibition concentration of LAE in the mixture ([7]; pH 5.0): 29.3
Qlae/QLAE ([7]; pH 5.0): 1.00
Qs, minimum inhibition concentration of potassium sorbate in the mixture ([7]; pH 5.0): 0
Qs/QS ([7]; pH 5.0): 0.00
SI, synergy index ([7]; pH 5.0): 1.00
QLAE, minimum inhibition concentration of LAE as single antimicrobial ([7]; pH 7.4, aqueous solutions): 25.60
Qlae, minimum inhibition concentration of LAE in the mixture ([7]; pH 7.4, aqueous solutions): 25.60
Qlae/QLAE ([7]; pH 7.4, aqueous solutions): 1.00
Qs, minimum inhibition concentration of potassium sorbate in the mixture ([7]; pH 7.4, aqueous solutions): 0.00
Qs/QS ([7]; pH 7.4, aqueous solutions): 0.00
SI, synergy index ([7]; pH 7.4, aqueous solutions): 1.00
